According to ChEMBL document CHEMBL3232853, “Alkylsulfone-containing trisubstituted cyclohexanes as potent and bioavailable chemokine receptor 2 (CCR2) antagonists” (Bioorg Med Chem Lett, 2014):
Activity calls are given as the source filed them. The calls are words filed in the database; no cut-off is given here.

Assays:
[1] = molecular target: Voltage-gated inwardly rectifying potassium channel KCNH2 (Homo sapiens, UniProt Q12809); test: Inhibition of human ERG by FLIPR assay
[2] = molecular target: C-C chemokine receptor type 2 (Homo sapiens, UniProt P41597); test: Displacement of [125I]-labeled human MCP1 from CCR2 in human PBMC
Rattus norvegicus [3] = species on record: Rattus norvegicus; test: Inhibition of rat sodium channel site 2 at 10 uM relative to control
Homo sapiens = species on record: Homo sapiens; test: Inhibition of sodium channel (unknown origin) at 10 uM at 4 Hz by patch clamp assay relative to control
Liver microsome = settings: human, microsomes, 10 min
Description: Metabolic stability in human liver microsomes assessed as compound remaining after 10 mins

[4] = Permeability across apical to basolateral side in human Caco2 cells; type: ADME, cell-based; settings: Caco-2, read-out: permeability
[5] = Clearance in mouse at 3 mg/kg, iv; type: ADME, organism-based; parameters: dose 3 mg/kg, route intravenous; settings: in vivo
Mus musculus [6] = test: Oral bioavailability in mouse at 54 mg/kg; type: ADME, organism-based; settings: in vivo
Canis familiaris [7] = test: Oral bioavailability in dog at 14 mg/kg; type: ADME, organism-based, Canis lupus familiaris; settings: in vivo
Mus musculus [8] = test: Antiinflammatory activity in thioglycollate-induced human CCR2 knock-in mouse peritonitis model assessed as reduction of Ly6C+F4/80+ cell numbers in peripheral blood at 50 mg/kg, po administered 1 hr prior to thioglycollate challenge measured after 6 hrs; type: functional, organism-based; parameters: dose 50 mg/kg
[9] = Clearance in dog at 1 mg/kg, iv; type: ADME, organism-based, Canis lupus familiaris; parameters: dose 1 mg/kg, route intravenous; settings: in vivo
Cynomolgus monkey [10] = test: Oral bioavailability in cynomolgus monkey at 14 mg/kg; type: ADME, organism-based, Macaca fascicularis; settings: in vivo
[11] = Clearance in rat at 6 mg/kg, iv; type: ADME, organism-based; parameters: dose 6 mg/kg, route intravenous; settings: in vivo
[12] = Clearance in cynomolgus monkey at 1 mg/kg, iv; type: ADME, organism-based, Macaca fascicularis; parameters: dose 1 mg/kg, route intravenous; settings: in vivo
Rattus norvegicus [13] = test: Oral bioavailability in rat at 72 mg/kg; type: ADME, organism-based; settings: in vivo
Mus musculus [14] = test: Antiinflammatory activity in thioglycollate-induced human CCR2 knock-in mouse peritonitis model assessed as reduction of Ly6C+F4/80+ cell numbers in peritoneal cavity at 50 mg/kg, po administered 1 hr prior to thioglycollate challenge measured after 6 hrs; type: functional, organism-based; parameters: dose 50 mg/kg
Mus musculus [15] = test: Antiinflammatory activity in thioglycollate-induced human CCR2 knock-in mouse peritonitis model assessed as reduction of Ly6C+F4/80+ cell numbers in peripheral blood at 100 mg/kg, po administered 1 hr prior to thioglycollate challenge measured after 6 hrs; type: functional, organism-based; parameters: dose 100 mg/kg
Canis familiaris [16] = test: Oral bioavailability in dog at 10 mg/kg; type: ADME, organism-based, Canis lupus familiaris; settings: in vivo
Mus musculus [17] = test: Oral bioavailability in mouse at 100 mg/kg; type: ADME, organism-based; settings: in vivo
Cynomolgus monkey [18] = test: Oral bioavailability in cynomolgus monkey at 10 mg/kg; type: ADME, organism-based, Macaca fascicularis; settings: in vivo
Rattus norvegicus [19] = test: Oral bioavailability in rat at 43 mg/kg; type: ADME, organism-based; settings: in vivo
Mus musculus [20] = test: Antiinflammatory activity in thioglycollate-induced human CCR2 knock-in mouse peritonitis model assessed as reduction of Ly6C+F4/80+ cell number peritoneal cavity at 100 mg/kg, po administered 1 hr prior to thioglycollate challenge measured after 6 hrs; type: functional, organism-based; parameters: dose 100 mg/kg
Mus musculus [21] = species on record: Mus musculus; test: Antiinflammatory activity in thioglycollate-induced wild type mouse peritonitis model; type: functional, organism-based
[22] = Clearance in mouse at 5 mg/kg, iv; type: ADME, organism-based; parameters: dose 5 mg/kg, route intravenous; settings: in vivo
[23] = Clearance in rat at 4 mg/kg, iv; type: ADME, organism-based; parameters: dose 4 mg/kg, route intravenous; settings: in vivo
[24] = Antagonist activity at CCR2 in human monocytes assessed as reduction of chemotaxis in presence of […]

Sequence of C-C chemokine receptor type 2 (P41597 whole entry): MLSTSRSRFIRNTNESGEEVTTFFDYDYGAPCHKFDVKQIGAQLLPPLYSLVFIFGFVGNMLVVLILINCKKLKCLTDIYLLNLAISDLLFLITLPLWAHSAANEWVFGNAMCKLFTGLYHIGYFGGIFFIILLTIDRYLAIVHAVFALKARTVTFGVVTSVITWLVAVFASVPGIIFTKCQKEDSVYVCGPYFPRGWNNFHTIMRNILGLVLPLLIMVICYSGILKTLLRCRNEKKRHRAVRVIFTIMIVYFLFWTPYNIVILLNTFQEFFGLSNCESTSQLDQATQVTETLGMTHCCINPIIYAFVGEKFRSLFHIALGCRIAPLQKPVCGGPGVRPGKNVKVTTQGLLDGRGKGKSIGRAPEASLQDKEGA
Sequence of Voltage-gated inwardly rectifying potassium channel KCNH2 (Q12809 whole entry): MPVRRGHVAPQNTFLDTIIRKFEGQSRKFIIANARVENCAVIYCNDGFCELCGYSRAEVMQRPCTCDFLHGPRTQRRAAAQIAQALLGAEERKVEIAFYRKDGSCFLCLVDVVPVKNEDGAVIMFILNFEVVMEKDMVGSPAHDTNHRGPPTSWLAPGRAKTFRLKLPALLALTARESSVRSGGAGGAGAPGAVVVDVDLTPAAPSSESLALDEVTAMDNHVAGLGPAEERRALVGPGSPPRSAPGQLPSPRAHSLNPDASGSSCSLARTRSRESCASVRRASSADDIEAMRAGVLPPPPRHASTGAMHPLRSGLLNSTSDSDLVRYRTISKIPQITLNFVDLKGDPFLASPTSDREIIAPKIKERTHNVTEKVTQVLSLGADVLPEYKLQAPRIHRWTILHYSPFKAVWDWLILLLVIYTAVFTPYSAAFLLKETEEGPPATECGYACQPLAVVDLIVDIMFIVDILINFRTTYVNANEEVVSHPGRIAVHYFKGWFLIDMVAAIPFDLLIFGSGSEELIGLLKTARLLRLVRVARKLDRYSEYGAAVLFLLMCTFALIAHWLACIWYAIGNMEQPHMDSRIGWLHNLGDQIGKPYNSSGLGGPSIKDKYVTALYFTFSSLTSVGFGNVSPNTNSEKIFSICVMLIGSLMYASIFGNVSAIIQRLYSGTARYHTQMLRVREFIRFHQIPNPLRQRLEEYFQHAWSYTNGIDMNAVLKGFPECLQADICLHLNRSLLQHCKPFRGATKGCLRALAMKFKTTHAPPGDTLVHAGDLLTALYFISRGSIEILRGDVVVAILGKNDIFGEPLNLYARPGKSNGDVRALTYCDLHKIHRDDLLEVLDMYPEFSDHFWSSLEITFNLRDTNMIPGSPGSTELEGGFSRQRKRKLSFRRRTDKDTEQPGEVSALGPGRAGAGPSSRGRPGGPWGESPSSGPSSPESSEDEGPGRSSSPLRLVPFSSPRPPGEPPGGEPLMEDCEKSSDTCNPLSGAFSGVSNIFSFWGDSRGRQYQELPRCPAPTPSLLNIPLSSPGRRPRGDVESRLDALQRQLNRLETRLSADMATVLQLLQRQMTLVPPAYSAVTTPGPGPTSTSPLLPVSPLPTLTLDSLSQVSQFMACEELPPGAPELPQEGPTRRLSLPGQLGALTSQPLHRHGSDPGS

Structure (SMILES): CCS(=O)(=O)C[C@@H]1C[C@H](N(C)C(C)C)CC[C@@H]1N1CC[C@H](NC(=O)c2cccc(-c3ccccc3)c2)C1=O
- IC50 [1]: 60 µM
- IC50 [2]: 1.1 nM

Structure (SMILES): CC(C)N(C)[C@@H]1CC[C@H](N2CC[C@H](NC(=O)c3cc(F)cc(C(F)(F)F)c3)C2=O)[C@H](CS(=O)(=O)C(C)(C)C)C1
- inhibition (Rattus norvegicus [3]): 48%
- IC50 [1]: > 80 µM
- IC50 [2]: 1.3 nM

Structure (SMILES): CCS(=O)(=O)C[C@@H]1C[C@H](N(C)C(C)C)CC[C@@H]1N1CC[C@H](NC(=O)c2cccc(C(F)(F)F)c2)C1=O
- inhibition (Rattus norvegicus [3]): 26%
- inhibition (Homo sapiens): 4.2%
- Stability (Liver microsome): 100%
- Papp A→B [4]: < 1.5 ×10⁻⁶ cm/s
- IC50 [2]: 1.2 nM

Structure (SMILES): CC(C)N(C)[C@@H]1CC[C@H](N2CC[C@H](NC(=O)c3cccc(C(F)(F)F)c3)C2=O)[C@H](CS(C)(=O)=O)C1
- clearance [5]: 70 mL/min/kg
- inhibition (Rattus norvegicus [3]): 3%
- F (Mus musculus [6]): 16%
- F (Canis familiaris [7]): 51%
- Activity (Mus musculus [8]): Active
- clearance [9]: 3 mL/min/kg
- inhibition (Homo sapiens): 22%
- Stability (Liver microsome): 100%
- F (Cynomolgus monkey [10]): 9%
- clearance [11]: 42 mL/min/kg
- clearance [12]: 14 mL/min/kg
- Papp A→B [4]: < 1.5 ×10⁻⁶ cm/s
- IC50 [2]: 1.8 nM
- F (Rattus norvegicus [13]): 1%
- Activity (Mus musculus [14]): Active

Structure (SMILES): CC(C)N(C)[C@@H]1CC[C@H](N2CC[C@H](NC(=O)c3cccc(C(F)(F)F)c3)C2=O)[C@H](CS(=O)(=O)C(C)C)C1
- Stability (Liver microsome): 100%
- Papp A→B [4]: < 1.5 ×10⁻⁶ cm/s
- IC50 [2]: 0.34 nM

Structure (SMILES): CC(C)N(C)[C@@H]1CC[C@H](N2CC[C@H](NC(=O)c3cccc(C(C)(C)C)c3)C2=O)[C@H](CS(=O)(=O)C(C)C)C1
- IC50 [2]: 0.5 nM

Structure (SMILES): CC(C)N(C)[C@@H]1CC[C@H](N2CC[C@H](NC(=O)c3cccc(C(C)(C)C)c3)C2=O)[C@H](CS(C)(=O)=O)C1
- IC50 [2]: 1.2 nM

Structure (SMILES): CC(C)N(C)[C@@H]1CC[C@H](N2CC[C@H](NC(=O)c3cccc(C(F)(F)F)c3)C2=O)[C@H](CS(=O)(=O)C(C)(C)C)C1
- Activity (Mus musculus [15]): Active
- inhibition (Rattus norvegicus [3]): 48%
- F (Canis familiaris [16]): 74%
- F (Mus musculus [17]): 13%
- F (Cynomolgus monkey [18]): 26%
- clearance [9]: 5 mL/min/kg
- F (Rattus norvegicus [19]): 14%
- inhibition (Homo sapiens): 19%
- Activity (Mus musculus [20]): Active
- Stability (Liver microsome): 100%
- clearance [12]: 12 mL/min/kg
- Papp A→B [4]: 3 ×10⁻⁶ cm/s
- IC50 [2]: 0.96 nM
- Activity (Mus musculus [21]): inactive
- clearance [22]: 25 mL/min/kg
- clearance [23]: 54 mL/min/kg

Structure (SMILES): CC(C)N(C)[C@@H]1CC[C@H](N2CC[C@H](NC(=O)c3cccc(C(F)(F)F)n3)C2=O)[C@H](CS(C)(=O)=O)C1
- inhibition (Rattus norvegicus [3]): 0%
- IC50 [1]: > 80 µM
- IC50 [2]: 2.2 nM

Structure (SMILES): CC(C)N(C)[C@@H]1CC[C@H](N2CC[C@H](NC(=O)c3cccc(OC(F)(F)F)c3)C2=O)[C@H](CS(=O)(=O)C(C)(C)C)C1
- inhibition (Rattus norvegicus [3]): 61%
- IC50 [1]: > 80 µM
- IC50 [2]: 1.2 nM

Structure (SMILES): CC(C)N(C)[C@@H]1CC[C@H](N2CC[C@H](NC(=O)c3cccc(OC(F)(F)F)c3)C2=O)[C@H](CS(C)(=O)=O)C1
- inhibition (Rattus norvegicus [3]): 32%
- IC50 [2]: 5 nM

Structure (SMILES): Cc1ccc(C(=O)N[C@H]2CCN([C@H]3CC[C@@H](N(C)C(C)C)C[C@H]3CS(C)(=O)=O)C2=O)cc1C(F)(F)F
- inhibition (Rattus norvegicus [3]): 36%
- IC50 [2]: 5.2 nM

Structure (SMILES): CC(C)N(C)[C@@H]1CC[C@H](N2CC[C@H](NC(=O)c3cccc(C(F)(F)F)c3)C2=O)[C@H](CS(=O)(=O)c2ccccc2)C1
- IC50 [24]: 0.5 nM
- Stability (Liver microsome): 88%
- Papp A→B [4]: < 1.5 ×10⁻⁶ cm/s

Structure (SMILES): CC(C)N(C)[C@@H]1CC[C@H](N2CC[C@H](NC(=O)c3cccc(C(C)(C)C)n3)C2=O)[C@H](CS(C)(=O)=O)C1
- inhibition (Rattus norvegicus [3]): 46%
- IC50 [2]: 0.7 nM
